# Target: T1, human PAH with the R408W mutation (Homo sapiens, UniProt P00439, R408W)
# T1 construct: expressed in transfected cells
# T1 sequence (P00439 1-452 R408W): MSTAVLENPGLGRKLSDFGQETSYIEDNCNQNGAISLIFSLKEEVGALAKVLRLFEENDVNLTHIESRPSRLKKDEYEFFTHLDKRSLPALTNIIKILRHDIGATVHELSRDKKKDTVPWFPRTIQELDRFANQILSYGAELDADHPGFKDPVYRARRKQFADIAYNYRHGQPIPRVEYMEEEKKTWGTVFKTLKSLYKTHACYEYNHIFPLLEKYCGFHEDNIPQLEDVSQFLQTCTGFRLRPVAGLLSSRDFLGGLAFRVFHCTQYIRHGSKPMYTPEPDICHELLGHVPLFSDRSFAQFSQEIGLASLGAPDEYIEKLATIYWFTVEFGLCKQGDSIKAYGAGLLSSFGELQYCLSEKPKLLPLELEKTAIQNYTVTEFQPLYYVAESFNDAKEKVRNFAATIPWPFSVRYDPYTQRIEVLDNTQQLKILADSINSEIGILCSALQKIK
# Test: Cell Based Phenylalanine Flux Assay
# Parameters: scale not given here
# Conditions: A375 cells expressing human R408W PAH; 24 hrs compound incubation; 13C-Tyrosine by LC-MS; average where tested multiple times; read-out: AC50
row,Compound,AC50
1,"O=C(CCc1nccs1)N1CCc2[nH]cnc2[C@H]1c1nccs1 [Example 2139, (S)-3-(thiazol-2-yl)-1-(4-(thiazol-2-yl)-6,7-dihydro-1H-imidazo[4,5-c]pyridin-5(4H)-yl)propan-1-one]",> 5000 nM
2,"O=C(CCc1nccs1)N1CCc2nc[nH]c2[C@@H]1c1nc2ccccc2s1 [Example 1004, (R)-1-(4-(benzo[d]thiazol-2-yl)-6,7-dihydro-3H-imidazo[4,5-c]pyridin-5(4H)-yl)-3-(thiazol-2-yl)propan-1-one]",1000 to 5000 nM
3,"CC(C)(O)c1nc(C(F)(F)F)c(C(=O)N2CCCc3[nH]cnc3[C@H]2c2nc3ccccc3s2)o1 [Example 2123, (S)-(4-(benzo[d]thiazol-2-yl)-7,8-dihydroimidazo[4,5-c]azepin-5(1H,4H,6H)-yl)(2-(2-hydroxypropan-2-yl)-4-(trifluoromethyl)oxazol-5-yl)methanone]",1000 to 5000 nM
4,"O=C(c1cn(CC2CC(F)(F)C2)nc1Cl)N1CCc2[nH]cnc2[C@@H]1c1nc2c(F)cccc2s1 [Example 2004, (R)-(3-chloro-1-((3,3-difluorocyclobutyl)methyl)-1H-pyrazol-4-yl)(4-(4-fluorobenzo[d]thiazol-2-yl)-6,7-dihydro-1H-imidazo[4,5-c]pyridin-5(4H)-yl)methanone]",1000 to 5000 nM
5,"COc1cccc(/C=C/C(=O)N2CCc3[nH]cnc3[C@@H]2c2nc3ccccc3s2)c1 [Example 1012, (R,E)-1-(4-(benzo[d]thiazol-2-yl)-6,7-dihydro-1H-imidazo[4,5-c]pyridin-5(4H)-yl)-3-(3-methoxyphenyl)prop-2-en-1-one]",> 5000 nM
6,"O=C(c1nnc(-c2ccc(C(F)(F)F)cn2)o1)N1CCc2[nH]cnc2[C@@H]1c1nc2c(F)cccc2s1 [Example 1847, (R)-(4-(4-fluorobenzo[d]thiazol-2-yl)-6,7-dihydro-1H-imidazo[4,5-c]pyridin-5(4H)-yl)(5-(5-(trifluoromethyl)pyridin-2-yl)-1,3,4-oxadiazol-2-yl)methanone]",1000 to 5000 nM
7,"O=C(c1cnc(-c2ccc(C(F)(F)F)cn2)s1)N1CCc2[nH]cnc2[C@@H]1c1nc2ccccc2s1 [Example 1350, (R)-(4-(benzo[d]thiazol-2-yl)-6,7-dihydro-1H-imidazo[4,5-c]pyridin-5(4H)-yl)(2-(5-(trifluoromethyl)pyridin-2-yl)thiazol-5-yl)methanone]",1000 to 5000 nM
8,"Cn1nc(C(F)(F)F)cc1C(=O)N1CCc2[nH]cnc2[C@@H]1c1nc2c(F)cccc2s1 [Example 1788, (R)-(4-(4-fluorobenzo[d]thiazol-2-yl)-6,7-dihydro-1H-imidazo[4,5-c]pyridin-5(4H)-yl)(1-methyl-3-(trifluoromethyl)-1H-pyrazol-5-yl)methanone]",> 5000 nM
9,"O=C(c1nccs1)N1CCc2[nH]cnc2[C@@H]1c1nc2ccccc2s1 [Example 1008, (R)-(4-(benzo[d]thiazol-2-yl)-6,7-dihydro-1H-imidazo[4,5-c]pyridin-5(4H)-yl)(thiazol-2-yl)methanone]",> 5000 nM
10,"O=C(c1ccccc1)N1CCc2[nH]cnc2[C@H]1c1nc2ccccc2[nH]1 [Example 928, (S)-(4-(1H-benzo[d]imidazol-2-yl)-1,4,6,7-tetrahydro-5H-imidazo[4,5-c]pyridin-5-yl)(phenyl)methanone]",500 to 1000 nM
11,"O=C(CC1CC1(F)F)N1CCc2[nH]cnc2[C@@H]1c1nc2ccccc2s1 (stereo partly drawn) [Example 1272, 1-((R)-4-(benzo[d]thiazol-2-yl)-6,7-dihydro-1H-imidazo[4,5-c]pyridin-5(4H)-yl)-2-(2,2-difluorocyclopropyl)ethenone]",> 5000 nM
12,"CC(F)c1nc(C(F)F)c(C(=O)N2CCc3[nH]cnc3[C@H]2c2nc3c(F)cccc3s2)o1 (single isomer, unassigned) [Example 2074]",< 500 nM
13,"Cn1ccc(-c2nnc(C(=O)N3CCc4[nH]cnc4[C@@H]3c3nc4c(F)cccc4s3)o2)n1 [Example 1825, (R)-(4-(4-fluorobenzo[d]thiazol-2-yl)-6,7-dihydro-1H-imidazo[4,5-c]pyridin-5(4H)-yl)(5-(1-methyl-1H-pyrazol-3-yl)-1,3,4-oxadiazol-2-yl)methanone]",500 to 1000 nM
14,"CC(C)(O)c1ncc(C(=O)N2CCc3[nH]cnc3[C@@H]2c2nc3c(F)cccc3s2)o1 [Example 1484, (R)-(4-(4-fluorobenzo[d]thiazol-2-yl)-6,7-dihydro-1H-imidazo[4,5-c]pyridin-5(4H)-yl)(2-(2-hydroxypropan-2-yl)oxazol-5-yl)methanone]",1000 to 5000 nM
15,"CC(C)(O)Cc1nc(C(F)F)c(C(=O)N2CCc3[nH]cnc3[C@@H]2c2nc3c(F)cccc3s2)o1 [Example 2062, (R)-(4-(difluoromethyl)-2-(2-hydroxy-2-methylpropyl)oxazol-5-yl)(4-(4-fluorobenzo[d]thiazol-2-yl)-6,7-dihydro-1H-imidazo[4,5-c]pyridin-5(4H)-yl)methanone]",1000 to 5000 nM
16,"Cc1nn(C)c(Cl)c1C(=O)N1CCc2[nH]cnc2[C@@H]1c1nc2c(F)cccc2s1 [Example 1741, (R)-(5-chloro-1,3-dimethyl-1H-pyrazol-4-yl)(4-(4-fluorobenzo[d]thiazol-2-yl)-6,7-dihydro-1H-imidazo[4,5-c]pyridin-5(4H)-yl)methanone]",1000 to 5000 nM
17,Cc1n[nH]cc1-c1nnc(C(=O)N2CCc3[nH]cnc3[C@H]2c2nc3ccccc3s2)o1 [Example 1941],< 500 nM
18,"CC(C)(O)c1nc(C(F)(F)F)c(C(=O)N2CCc3[nH]cnc3[C@H]2c2nc3c(F)cccc3s2)o1 [Example 1541, (S)-(4-(4-fluorobenzo[d]thiazol-2-yl)-6,7-dihydro-1H-imidazo[4,5-c]pyridin-5(4H)-yl)(2-(2-hydroxypropan-2-yl)-4-(trifluoromethyl)oxazol-5-yl)methanone]",< 500 nM
19,"Cc1nc([C@@H](C)O)oc1C(=O)N1CCc2[nH]cnc2[C@@H]1c1nc2c(F)cccc2s1 [Example 1930, ((R)-4-(4-fluorobenzo[d]thiazol-2-yl)-6,7-dihydro-1H-imidazo[4,5-c]pyridin-5(4H)-yl)(2-((R)-1-hydroxyethyl)-4-methyloxazol-5-yl)methanone]",1000 to 5000 nM
20,Cc1nc(C(C)C)oc1C(=O)N1CCc2[nH]cnc2[C@H]1c1nc2ccccc2s1 [Example 1397],< 500 nM
21,"Cc1cccc2nc([C@H]3c4nc[nH]c4CCN3C(=O)c3cncs3)sc12 [Example 1315, (R)-(4-(7-methylbenzo[d]thiazol-2-yl)-6,7-dihydro-1H-imidazo[4,5-c]pyridin-5(4H)-yl)(thiazol-5-yl)methanone]",1000 to 5000 nM
22,O=C(CCc1ncc(Cl)s1)N1CCc2[nH]cnc2[C@H]1c1nc2ccccc2s1 [Example 1025],1000 to 5000 nM
23,O=C(c1cn(CC(F)(F)F)nc1C(F)F)N1CCc2[nH]cnc2[C@H]1c1nc2ccccc2s1 [Example 1985],< 500 nM
24,"Cc1nc(C(C)(C)F)oc1C(=O)N1CCc2[nH]cnc2[C@H]1c1nc2c(F)cccc2s1 [Example 1499, (S)-(4-(4-fluorobenzo[d]thiazol-2-yl)-6,7-dihydro-1H-imidazo[4,5-c]pyridin-5(4H)-yl)(2-(2-fluoropropan-2-yl)-4-methyloxazol-5-yl)methanone]",< 500 nM
25,CC(C)(O)/C=C/c1nc(C(F)(F)F)c(C(=O)N2CCc3[nH]cnc3[C@H]2c2nc3ccccc3s2)o1 [Example 1569],< 500 nM
26,"Cc1ccc(-c2nnc(C(=O)N3CCc4[nH]cnc4[C@@H]3c3nc4c(F)cccc4s3)o2)nc1 [Example 1903, (R)-(4-(4-fluorobenzo[d]thiazol-2-yl)-6,7-dihydro-1H-imidazo[4,5-c]pyridin-5(4H)-yl)(5-(5-methylpyridin-2-yl)-1,3,4-oxadiazol-2-yl)methanone]",500 to 1000 nM
27,Cc1cc(C2(C(=O)N3CCc4[nH]cnc4[C@H]3c3nc4ccccc4s3)CC2)on1 [Example 1549],< 500 nM
28,"O=C(CC1CC(F)C1)N1CCc2[nH]cnc2[C@@H]1c1nc2ccccc2s1 (stereo partly drawn) [Example 1246, (R)-1-(4-(benzo[d]thiazol-2-yl)-6,7-dihydro-1H-imidazo[4,5-c]pyridin-5(4H)-yl)-2-(3-fluorocyclobutyl)ethanone]",1000 to 5000 nM

# Same assay, conditions: A375 cells expressing human R408W PAH; 24 hrs with compound; 13C-Tyrosine by LC-MS; average where tested multiple times
row,Compound,AC50
1,NC(=O)N1CC(C(=O)N2CCc3[nH]cnc3C2c2nc3ccccc3s2)C1 (stereo not shown),"E, E"

# Same assay, conditions: A375 cells expressing human R408W PAH; 24 hrs with compound; 13C-Tyrosine by LC-MS; average where tested multiple times; read-out: AC50
row,Compound,AC50
1,O=C(c1cnco1)N1CCc2[nH]cnc2C1c1nc2cc(F)ccc2s1 (stereo not shown),1000 to 5000 nM
2,O=C(c1cnn2cc(Cl)ccc12)N1CCc2nc[nH]c2C1c1nc2cc(F)ccc2s1 (stereo not shown),> 5000 nM
3,"CC(=O)N1CCc2[nH]cnc2[C@H]1c1nc2ccccc2s1 (single isomer, unassigned)",1000 to 5000 nM
4,Cc1nnc(CCC(=O)N2CCc3[nH]cnc3C2c2nc3cc(F)ccc3s2)s1 (stereo not shown),1000 to 5000 nM
5,Cc1nnc(C(=O)N2CCc3[nH]cnc3C2c2nc3ccccc3[nH]2)s1 (stereo not shown),> 5000 nM
6,O=C(c1cnc[nH]1)N1CCc2[nH]cnc2C1c1nc2ccccc2s1 (stereo not shown),> 5000 nM
7,CC(C)(O)c1cc(C(=O)N2CCc3[nH]cnc3C2c2nc3c(F)cccc3s2)ns1 (stereo not shown),> 5000 nM
8,O=C(Cn1cncn1)N1CCc2[nH]cnc2C1c1nc2ccccc2s1 (stereo not shown),> 5000 nM
9,Cc1nnc(C(=O)N2CCc3[nH]cnc3C2c2nc3cc(Br)ccc3[nH]2)s1 (stereo not shown),> 5000 nM
10,Cc1nnc(C(=O)N2CCc3[nH]cnc3C2c2nc3cc(F)ccc3s2)s1 (stereo not shown),1000 to 5000 nM
11,Cc1ncc(C(=O)N2CCc3[nH]cnc3C2c2nc3ccccc3s2)o1 (stereo not shown),1000 to 5000 nM

# Reference: US20250171438A1 (Agios Pharmaceuticals, Inc., priority 2022, published 2025)
